Laboratory results reported in patent publication US11866459B2, “Cocrystal of progesterone and preparation method and use thereof” (NATIONAL INSTITUTES FOR FOOD AND DRUG CONTROL, priority 2020, dated 2024).
Counter-ions that a name gives are not always drawn. Like-named read-outs stand apart in the source and are kept apart here.

What was measured:
[1] = test system: Female immature white rabbits; assay: Pharmacodynamic experiment of cocrystals of progesterone: rabbit body weight and uterine index; format: in vivo; settings: for Uterine index (weight of uterus / weight of rabbit): x ± s
Experimental: Female immature white rabbits were used and randomly divided into blank group, positive control group, low dose group, medium dose group and high dose group, with 10 rabbits in each group. The dose of progesterone that should be given to each rabbit is twice the clinical human dose of progesterone, and is calculated according to the rabbit's body weight. […] The intramuscular injections were performed for a consecutive 30 days. Weighing was performed on day 1 and day 30 respectively. A part of the uterine tissue 2 cm from the junction of the uterus and vagina in the direction of the ovary was cut and weighed. The uterine index was calculated by dividing the weight of the uterus by the weight of each rabbit.

[2] = Determination of the dissolution rate (dissolution curves, stirring paddle method, HPLC); settings: for time at which the highest concentration was reached / highest value of concentration of progesterone on dissolution curve: 37±0.5° C.; for highest value of concentration of progesterone on dissolution curve: 50 to 100 rpm
Experimental: (§1) The present invention involves the following detection instruments: • Single-crystal X-ray diffractometer: Bruker P4, Mo target, \ω scan, 296.15K; • Fourier infrared spectrometer: PerkinElmer Frontier FT/IR Spectrometer, normal temperature, KBr pellets, wavelength of 4000 to 450 cm^−1; • Powder X-ray diffractometer: Rigaku D/max-25509 kw, CuKα radiation, graphite monochromator; • Differential scanning calorimetry analyzer: Mettler Toledo DSC 822e, heating rate of 10° C./min, nitrogen flow rate of 50 mL/min; • Dynamic vapour sorption analyzer: SMS DVS advantage, 25° C.; • Dissolution apparatus: Tianjin Tianda Tianfa Technology Co., Ltd. RC806D, stirring paddle method; • Drug permeation rate tester: Pion Inc μFlux™.
The two dissolution media are water and pH 1.2 hydrochloric acid solution, respectively. […] The content of progesterone at the wavelength of 241 nm was measured by the HPLC method, and the dissolution amount was calculated by the external standard method. Dissolution curves with time as the abscissa and the concentration of progesterone as the ordinate were respectively plotted, as shown in FIGS. 5 and 6.

in vitro = settings: PAMPA; for permeability level compared with metoprolol / permeation rate relative to the progesterone monomer: pH 6.8
Experimental: as §1
Since the pH of fasting intestinal fluid in a human body is 6.5 and the pH of blood is 7.4, in order to make the conditions under which the permeation rate was measured close to the environment of the human gastrointestinal tract, pH 6.8 phosphate buffer was selected as the medium in the experiment. 3 mg of progesterone monomers and cocrystals of progesterone equivalent to 3 mg of progesterone were accurately weighed, and respectively placed in a donor compartment that represents the gastrointestinal tract, and 20 ml of pH 6.8 phosphate buffer was accurately added. 20 ml of pH 7.4 ASB buffer was accurately added to a receptor compartment that represents blood. The two compartments were separated by a biomimetic membrane with an area of 1.54 cm^2. The biomimetic membrane was coated with 25 μl of simulated gastrointestinal liposomes for infiltration, which represents the cell membrane of the gastrointestinal tract. At the temperature of 37° C. and the stirring speed of 200 rpm, sampling was conducted for 4 h, with an interval of 60 s between each two sampling procedures. The drug concentration in the receptor compartment was measured with a fiber optic probe within the ultraviolet wavelength range of 250 to 350 nm. The artificial membrane permeation rate of the drug was calculated according to Formula 1 (J/Flux).
[formula] represents the rate of change of drug concentration in the receptor compartment per unit time (μg·mL^−1·min^−1); V is the volume of buffer in the receptor compartment (mL); A is the area of the biomimetic membrane (cm^2); and Ct is the initial concentration of the drug in the donor compartment (μg·mL^−1).
The level of drug permeability can be determined by comparing the permeability of the drug with that of metoprolol measured by the same method.

[3] = Determination of hygroscopicity by dynamic vapour sorption analysis; format: physicochemical; settings: 25° C.
Experimental: The nitrogen flow rate was 200 ml/min, and the relative humidity, varied in a stepped manner by a change of 10%, increased from 20% to 80%, and then dropped to 0%.

[4] = pH 1.2 hydrochloric acid solution

Compound	solubility relative to the progesterone monomer [2]	solubility relative to the progesterone monomer ([2]; pH 1.2)	time at which the highest concentration was reached [2, 4]	highest value of concentration of progesterone on dissolution curve [2, 4]	time at which the highest concentration was reached ([2]; water)	highest value of concentration of progesterone on dissolution curve ([2]; water)	effective permeability (Pe) (in vitro)	permeation rate (J, Flux) (in vitro)	permeability level compared with metoprolol (in vitro)	permeation rate relative to the progesterone monomer (in vitro)	Papp at 4 h, 150 µg/mL (in vitro)	further results
progesterone-isophthalic acid cocrystal	–	–	–	–	–	–	–	–	–	–	–	Uterine index (weight of uterus / weight of rabbit) ([1]; 3.5 mg·kg^−1 intramuscular for 30 consecutive days, low dose group): 0.025 ± 0.009%; Uterine index (weight of uterus / weight of rabbit) ([1]; 7 mg·kg^−1 intramuscular for 30 consecutive days, medium dose group): 0.029 ± 0.009 %; Uterine index (weight of uterus / weight of rabbit) ([1]; 14 mg·kg^−1 intramuscular for 30 consecutive days (high dose group / positive control group)): 0.035 ± 0.008%; change of uterine index of rabbits as the dose increased ([1]; 3.5, 7 and 14 mg·kg^−1 intramuscular, 30 days): increasing trend; statistical difference in uterine index versus positive control group ([1]; high dose group, 14 mg·kg^−1): no significant difference; statistical difference in uterine index versus positive control group ([1]; low dose group, 3.5 mg·kg^−1): significant differences; statistical difference in uterine index versus positive control group ([1]; medium dose group, 7 mg·kg^−1): no significant difference
CC(=O)[C@H]1CC[C@H]2[C@@H]3CCC4=CC(=O)CC[C@]4(C)[C@H]3CC[C@]12C [progesterone, pregn-4-ene-3,20-dione]	–	–	120 min	7.87 µg/mL	120 min	7.84 µg/mL	–	–	high permeability	–	1110 ×10⁻⁶ cm/s	permeation rate (J, Flux) (in vitro; 4 h, 150 µg/mL): 0.32 μg·min^−1·cm^−2; hygroscopicity ([3]; dynamic vapour sorption): non-hygroscopic; change in relative mass (dynamic vapour sorption) ([3]; relative humidity 20% to 80% then to 0% in 10% steps): less than 0.2%

Continued, in another order:

solubility relative to the progesterone monomer [2]	solubility relative to the progesterone monomer ([2]; pH 1.2)	time at which the highest concentration was reached [2, 4]	highest value of concentration of progesterone on dissolution curve [2, 4]	time at which the highest concentration was reached ([2]; water)	highest value of concentration of progesterone on dissolution curve ([2]; water)	effective permeability (Pe) (in vitro)	permeation rate (J, Flux) (in vitro)	permeability level compared with metoprolol (in vitro)	permeation rate relative to the progesterone monomer (in vitro)	Papp at 4 h, 150 µg/mL (in vitro)	Compound	further results
1.2 times	1.1 times	120 min	8.77 µg/mL	60 min	9.06 µg/mL	887 ×10⁻⁶ cm/s	0.62 μg·min^−1·cm^−2	high permeability	1.9 times	–	CC(=O)[C@H]1CC[C@H]2[C@@H]3CCC4=CC(=O)CC[C@]4(C)[C@H]3CC[C@]12C.O=Cc1ccc(B(O)O)cc1 [progesterone-4-formylbenzeneboronic acid cocrystal]	–
1.3 times	1.3 times	30 min	10.4 µg/mL	90 min	9.90 µg/mL	1460 ×10⁻⁶ cm/s	0.28 μg·min^−1·cm^−2	high permeability	0.9 times	–	CC(=O)[C@H]1CC[C@H]2[C@@H]3CCC4=CC(=O)CC[C@]4(C)[C@H]3CC[C@]12C.O=C(O)c1cccc([N+](=O)[O-])c1C(=O)O [progesterone-3-nitrophthalic acid cocrystal]	–
–	–	–	–	–	–	–	–	–	–	120 ×10⁻⁶ cm/s	COCCc1ccc(OCC(O)CNC(C)C)cc1 (stereo not shown) [metoprolol tartrate, reference compound]	–
